Results from patent publication US20130071487A1, “XENON-BASED INHALABLE DRUG FOR PREVENTING ADDICTION RELAPSES IN HUMANS” (L'Air Liquide, Societe Anonyme pour l'Etude et …, priority 2010, published 2013).

Experiments:
[1] = test system: alcohol consumption after deprivation; assay: Alcohol deprivation effect model (EAD); format: in vivo, male Wistar rats; conditions: rat; for effect on alcohol consumption after deprivation (consumption curve versus control) / difference in area under curve versus control group N2/O2: EAD model; for effect on alcohol consumption after deprivation (consumption curve versus control): 50%/50% gas/O2, FIG. 2 and FIG. 3; for difference in area under curve versus control group N2/O2: 50%/50% gas/O2, control 16.34±0.9 g/kg*day; for area under curve of total ethanol consumption: two 1 hour inhalation exposures to 50%/50% gas/O2 mixture, consumption measured daily for 6 post-abstinence days, control N2/O2 16.34±0.9
Text: The alcohol deprivation model (EAD) comprises habituating the animals to consumption of alcohol for a period of 8 weeks, followed by a period of deprivation of 2 weeks, during which alcohol was withdrawn. This cycle is repeated 8 times. After a period of deprivation, access to alcohol causes a significant but temporary increase in alcohol consumption compared to the reference level. This model is ideal for studying behavior during relapse. It was validated with nacamprosate and naltrexone.
The following experimental protocol was followed.
16 male Wistar rats have free and continuous access to 2 feeding bottles, one containing tap water and the other containing 5%, 10% and 20% ethanol (vol./ vol.) in their cages.
The first two-week deprivation period is introduced after 8 weeks of continuously available alcohol, as illustrated in FIG. 1.
After this deprivation period, the rats will have access to alcohol and again to at least 2 more randomly introduced periods of deprivation.
All the animals are divided into 2 groups (8 rats/group) so that for the mean baseline (week 23), the total alcohol consumption will be essentially the same in each group.
On the last day of week 25 at about 9 am, […] animals are exposed to the Xe/O2 (50%/50%) gaseous mixture for 1 hour.
The control group is exposed to N2/O2 (50%/50%). The following day at 9 am all the animals are exposed for a second time to these same gaseous mixtures for 1 hour.
The exposures to the gaseous mixture are represented by two arrows in FIG. 2.
Following this last exposure, the bottles of alcohol will again be offered (post-abstinence days).
Following exposures to the different gases, the total consumption of ethanol (g/kg of body weight) is measured daily at about 10 am, for 6 days.

[2] = test system: stimuli-induced alcoholic relapse; assay: Stimuli-induced alcoholic relapse model; format: in vivo, male Wistar rats; conditions: rat, 1 hour gas exposure 24 hours and 3 hours before the relapse test, FIG. 5
Description: Another animal model well-established in the literature was used to evaluate the anti-relapse effects of xenon, namely the stimuli-induced alcoholic relapse model.
This model is based on the fact that taking drugs or alcohol capable of leading to dependence is associated with a number of environmental stimuli (auditory, olfactory, visual) which are themselves likely to lead to a relapse.
Briefly, the experiments were carried out in conditioning chambers equipped with 2 levers allowing the distribution of water or of alcohol.
24 male Wistar rats were used. The animals are trained to self-administer ethanol at 10% by volume during the course of daily sessions lasting 30 minutes.
During the conditioning phase, the animals are trained to distinguish between the availability of alcohol and of water. Stimulus 1 (orange extract) is the signal for availability of alcohol and each pressing of lever No.1 results in conditioned stimulus No.1 (flashing light) and the immediate distribution of alcohol (30 μl). Furthermore, lever No.2 remains unused during the “alcohol sessions” throughout the experiment.
Stimulus n° 2 (anise extract) will give the signal for availability of water during the “water sessions” and each pressing of lever No.2 results in the presentation of conditioned stimulus No.2 (constant light) and the distribution of water (30 μl). […]

[3] = test system: alcohol consumption following alcohol deprivation; conditions: alcohol-dependent rats; cited from earlier work

| Compound | effect on alcohol consumption after deprivation (consumption curve versus control) [1] | difference in area under curve versus control group N2/O2 [1] | area under curve of total ethanol consumption [1] | number of presses on the lever delivering the alcohol following exposure to stimulus-1, compared to control N2/O2 50%/50% [2] | effect on increase in alcohol consumption following alcohol deprivation [3] |
| --- | --- | --- | --- | --- | --- |
| [N-]=[N+]=O [N2O, nitrous oxide] | reduces this alcohol consumption to a much lesser extent | 1 | 15.34±1.3 g/kg*day | no significant effect | – |
| CC(=O)NCCCS(=O)(=O)O [acamprosate] | – | – | – | – | a reduction was noted in detrimental effects |
| [Xe] [xenon] | reduction in alcohol consumption | difference of two units | 14.28±1.3 g/kg*day | significant reduction | – |
